Assay results from patent US12281363B2, “Methods for detecting antiviral-drug resistant virus” (Secretary of State for Health and Social Care, priority 2018, dated 2025).
Where two headings read alike, the source gives them in different places.

Tested on: HSV-1
Experiment: Plaque reduction assay, HSV-1 clinical isolates on Vero cells
Type: cell-based
Conditions: Human alphaherpesvirus 1, Vero
Text: Viral isolates were used to infect a sub-confluent monolayer of Vero cells at a concentration of 75 or 50 plaque forming units (PFU) per well for HSV-1 and HSV-2, respectively. […] CMC medium typically used to create a semisolid interface and prevents indiscrimate viral spreading. Other materials (e.g. agar) may also be used to create this interface.
Cells were fixed with 10% formalin and stained with crystal violet before enumeration of the plaques (microscopic observation or use of fluorescent antibodies for detection is also suitable). The data obtained from these experiments were then expressed as percent inhibition of viral infectivity relative to the no drug control.
Definitions of phenotypic drug susceptibility classification as sensitive or resistant were as follows: ACV, <3 μM or >40 μM; PCV, <10 μM or >40 μM; CDV, <24 μM or >30 μM; FOS, <250 μM or >400 μM; and ACV, <6.5 μM or >40 μM; PCV, <38 μM or >40 μM; FOS, <250 μM or >400 μM for HSV-1 and HSV-2, respectively. Any IC50 values falling in between these sensitive and resistant cut-offs were reported as intermediate resistance.
The phenotype (i.e. reactivity to a drug) of the virus was characterised by the plaque reduction assay as described above.

`Nc1ccn(C[C@@H](CO)OCP(=O)(O)O)c(=O)n1` [Cidofovir, cidofovir] was tested, and the IC50 (72 h, isolate HPG053, HSV-1 pol L802R + A834S (2405T>G, 2500G>T), also TK R176W, read-out: Drug susceptibility (IC50 value)) was 7.72 µM, the IC50 (isolate HPG002, HSV-1 pol E992K (2974G>A), also TK insert (G) nt 430-436, pol A1169T, read-out: Drug susceptibility (IC50 value)) was 6.09 µM and the IC50 (isolate HPG002, HSV-1 pol E992K (2974G>A), also TK insert (G) nt 430-436, pol A1169T, read-out: Drug susceptibility Cidofovir (CDV)) was less than 24 µM. It also gave an IC50 (isolate HPG003, HSV-1 TK Y172S (515A>C), read-out: Drug susceptibility (IC50 value)) of less than 1.56 µM, an IC50 (isolate HPG003, HSV-1 TK Y172S (515A>C), read-out: Drug susceptibility Cidofovir (CDV)) of less than 24 µM and an IC50 (isolate HPG005, HSV-1 TK A37V (110C>T), read-out: Drug susceptibility (IC50 value)) of 2.21 µM. It also gave an IC50 (isolate HPG005, HSV-1 TK A37V (110C>T), read-out: Drug susceptibility Cidofovir (CDV)) of less than 24 µM, an IC50 (isolate HPG008, HSV-1 TK V204G (611T>G), read-out: Drug susceptibility (IC50 value)) of 3.56 µM and an IC50 (isolate HPG008, HSV-1 TK V204G (611T>G), read-out: Drug susceptibility Cidofovir (CDV)) of less than 24 µM. The IC50 (isolate HPG009, HSV-1 pol E992K (2974G>A), also pol A1169T, read-out: Drug susceptibility (IC50 value)) was 9.44 µM, the IC50 (isolate HPG009, HSV-1 pol E992K (2974G>A), also pol A1169T, read-out: Drug susceptibility Cidofovir (CDV)) was less than 24 µM and the IC50 (isolate HPG010, HSV-1 TK Q125* (373C>T), read-out: Drug susceptibility (IC50 value)) was less than 1.56 µM. It also gave an IC50 (isolate HPG010, HSV-1 TK Q125* (373C>T), read-out: Drug susceptibility Cidofovir (CDV)) of less than 24 µM, an IC50 (isolate HPG011, HSV-1 TK Q125* (373C>T), read-out: Drug susceptibility (IC50 value)) of less than 1.56 µM and an IC50 (isolate HPG011, HSV-1 TK Q125* (373C>T), read-out: Drug susceptibility Cidofovir (CDV)) of less than 24 µM. For the same compound, the IC50 (isolate HPG013, HSV-1 TK M121I (363G>A), read-out: Drug susceptibility (IC50 value)) was 3.11 µM, the IC50 (isolate HPG013, HSV-1 TK M121I (363G>A), read-out: Drug susceptibility Cidofovir (CDV)) was less than 24 µM and the IC50 (isolate HPG013, HSV-1 pol D83A (248A>C), also TK M121I, pol A1169T, read-out: Drug susceptibility (IC50 value)) was 3.11 µM. It also gave an IC50 (isolate HPG013, HSV-1 pol D83A (248A>C), also TK M121I, pol A1169T, read-out: Drug susceptibility Cidofovir (CDV)) of less than 24 µM, an IC50 (isolate HPG014, HSV-1 pol A1115T (3343G>A), read-out: Drug susceptibility (IC50 value)) of 17.2 µM and an IC50 (isolate HPG014, HSV-1 pol A1115T (3343G>A), read-out: Drug susceptibility Cidofovir (CDV)) of less than 24 µM. It also gave an IC50 (isolate HPG014, HSV-1 pol R993C (2977C>T), read-out: Drug susceptibility (IC50 value)) of 17.2 µM, an IC50 (isolate HPG014, HSV-1 pol R993C (2977C>T), read-out: Drug susceptibility Cidofovir (CDV)) of less than 24 µM and an IC50 (isolate HPG014, HSV-1 pol T54A (160A>G), read-out: Drug susceptibility (IC50 value)) of 17.2 µM. For the same compound, the IC50 (isolate HPG014, HSV-1 pol T54A (160A>G), read-out: Drug susceptibility Cidofovir (CDV)) was less than 24 µM, the IC50 (isolate HPG015, HSV-1 pol 966stop or F965_I966insF (2892_2893insT to 2895_2896insT), read-out: Drug susceptibility (IC50 value)) was 45.1 µM and the IC50 (isolate HPG015, HSV-1 pol 966stop or F965_I966insF (2892_2893insT to 2895_2896insT), read-out: Drug susceptibility Cidofovir (CDV)) was greater than 30 µM. For the same compound, the IC50 (isolate HPG018, HSV-1 TK frameshift (881delC to 885delC), read-out: Drug susceptibility (IC50 value)) was 3.03 µM, the IC50 (isolate HPG018, HSV-1 TK frameshift (881delC to 885delC), read-out: Drug susceptibility Cidofovir (CDV)) was less than 24 µM and the IC50 (isolate HPG018, HSV-1 pol P1199T (3595C>A), also TK deletion (C) nt 881-885, pol A1169T, read-out: Drug susceptibility (IC50 value)) was 3.03 µM. It also gave an IC50 (isolate HPG018, HSV-1 pol P1199T (3595C>A), also TK deletion (C) nt 881-885, pol A1169T, read-out: Drug susceptibility Cidofovir (CDV)) of less than 24 µM, an IC50 (isolate HPG019, HSV-1 pol K750T (2249A>C), also TK deletion (G) nt 430-436, pol A1169T, read-out: Drug susceptibility (IC50 value)) of 20.4 µM and an IC50 (isolate HPG019, HSV-1 pol K750T (2249A>C), also TK deletion (G) nt 430-436, pol A1169T, read-out: Drug susceptibility Cidofovir (CDV)) of less than 24 µM. It also gave an IC50 (isolate HPG020, HSV-1 pol S911N (2732G>A), also pol A1169T, read-out: Drug susceptibility (IC50 value)) of 4.38 µM, an IC50 (isolate HPG020, HSV-1 pol S911N (2732G>A), also pol A1169T, read-out: Drug susceptibility Cidofovir (CDV)) of less than 24 µM and an IC50 (isolate HPG021, HSV-1 pol R681Q (2042G>A), also TK deletion (G) nt 430-436, read-out: Drug susceptibility (IC50 value)) of less than 1.56 µM. It also gave an IC50 (isolate HPG021, HSV-1 pol R681Q (2042G>A), also TK deletion (G) nt 430-436, read-out: Drug susceptibility Cidofovir (CDV)) of less than 24 µM, an IC50 (isolate HPG021, HSV-1 pol T839A (2515A>G), also TK deletion (G) nt 430-436, read-out: Drug susceptibility (IC50 value)) of less than 1.56 µM and an IC50 (isolate HPG021, HSV-1 pol T839A (2515A>G), also TK deletion (G) nt 430-436, read-out: Drug susceptibility Cidofovir (CDV)) of less than 24 µM. The IC50 (isolate HPG025, HSV-1 pol E850Q (2548G>C), also TK R216C, read-out: Drug susceptibility (IC50 value)) was less than 1.56 µM, the IC50 (isolate HPG025, HSV-1 pol E850Q (2548G>C), also TK R216C, read-out: Drug susceptibility Cidofovir (CDV)) was less than 24 µM and the IC50 (isolate HPG026, HSV-1 pol E850Q (2548G>C), also TK R216C, pol A1169T, read-out: Drug susceptibility (IC50 value)) was less than 1.56 µM. For the same compound, the IC50 (isolate HPG026, HSV-1 pol E850Q (2548G>C), also TK R216C, pol A1169T, read-out: Drug susceptibility Cidofovir (CDV)) was less than 24 µM, the IC50 (isolate HPG027, HSV-1 TK V204G (611T>G), also pol S914L, A1169AT, read-out: Drug susceptibility (IC50 value)) was 3.93 µM and the IC50 (isolate HPG027, HSV-1 TK V204G (611T>G), also pol S914L, A1169AT, read-out: Drug susceptibility Cidofovir (CDV)) was less than 24 µM. The IC50 (isolate HPG027, HSV-1 pol S914L (2741C>T), also TK V204G, pol A1169T, read-out: Drug susceptibility (IC50 value)) was 3.93 µM, the IC50 (isolate HPG027, HSV-1 pol S914L (2741C>T), also TK V204G, pol A1169T, read-out: Drug susceptibility Cidofovir (CDV)) was less than 24 µM and the IC50 (isolate HPG029, HSV-1 TK Y172S (515A>C), read-out: Drug susceptibility (IC50 value)) was 2.99 µM. It also gave an IC50 (isolate HPG029, HSV-1 TK Y172S (515A>C), read-out: Drug susceptibility Cidofovir (CDV)) of less than 24 µM, an IC50 (isolate HPG031, HSV-1 pol E1120A (3359A>C), also a TK resistance mutation (footnote e), read-out: Drug susceptibility (IC50 value)) of 4.8 µM and an IC50 (isolate HPG031, HSV-1 pol E1120A (3359A>C), also a TK resistance mutation (footnote e), read-out: Drug susceptibility Cidofovir (CDV)) of less than 24 µM. It also gave an IC50 (isolate HPG031, HSV-1 pol G139R (415G>C or 415G>A), also a TK resistance mutation (footnote e), read-out: Drug susceptibility (IC50 value)) of 4.8 µM, an IC50 (isolate HPG031, HSV-1 pol G139R (415G>C or 415G>A), also a TK resistance mutation (footnote e), read-out: Drug susceptibility Cidofovir (CDV)) of less than 24 µM and an IC50 (isolate HPG032, HSV-1 TK 183* (437_438insA), read-out: Drug susceptibility (IC50 value)) of 3.61 µM.
